“Also recorded” adds a separate entry of the source. Where two headings read alike, the source gives them in different places.
What was measured:
S. purpuratus embryos = assay: Inhibition of first cleavage (cell division) of sea urchin embryos; format: cell-based, Strongylocentrotus purpuratus; settings: for inhibition of the first cleavage of S. purpuratus embryos: FIGS. 1-4; for IC50: Strongylocentrotus purpuratus, read-out: concentration required for half maximal inhibition of first cleavage
Experimental: (§1) Male and female Strongylocentrotus purpuratus or S. franciscanus were injected with 0.5 M KCl through the soft tissue of the oral surface into the coleomic cavity and were then cultured in filtered seawater by conventional methods in the art. See e.g. O'Brien, E. T., et al. (1989) Mol. Pharmacol. 35:635-642; and Jacobs, J. S. and L. Wilson (1986) Drugs Pharm. Sci. 27:481-493, which are herein incorporated by reference. Gametes were released into filtered seawater. The eggs were stirred and passed 3 times through a […] Nitex mesh (Tetko, Inc., Elmsford, N.Y.) to remove the jelly coating and then allowed to settle. The seawater was aspirated off and then the eggs were centrifuged for 4 minutes at 310 rpm. The eggs were resuspended at 1% (v/v) in filtered seawater and set aside. Fresh sperm were collected from the aboral surface of a male urchin. About 1 drop of concentrated sperm was collected into a test tube and 1 ml of seawater was added. A 1 ml aliquot of the sperm solution was added per 100 ml of suspended eggs and immediately mixed.
After 1 minute post-fertilization, about 1 ml of embryos were placed on a microscope slide and checked for percent fertilization under a 10× magnification with a light microscope. A visible fertilization membrane differentiates fertilized egg from the unfertilized. The fertilized embryos were then incubated with a coumarin compound no later than 5 minutes after initial fertilization. The embryos were incubated for about 2 hours at about 15° C. to about 17° C., or until the control embryos completed first division and were in the 2-cell stage. The amount of division was calculated in each test sample by counting the number of divided versus undivided embryos in a small sample of about 40 μL using the light microscope.
(§2) Quantitation of division was performed by counting the number of divided and nondivided embryos after the control embryos had progressed to the end of first cleavage (about 120 minutes after fertilization). […]

[1] = system: Lytechinus pictus embryos; assay: Inhibition of first cleavage of sea urchin embryos (dose-response); format: cell-based
sea urchin embryos [2] = assay: Spindle microtubule and chromosome organization in sea urchin embryos (immunofluorescence, modified Balczon and Schatten); format: cell-based, S. franciscanas; settings: 50 μM dicoumarol
Experimental: Sea urchin embryos prepared according to Example 1 were used to study the effect of coumarin compounds on spindle microtubule organization and chromosome organization using immunofluorescence microscopy with specific antibodies for tubulin and DAPI was used to image the chromatin. Two different sea urchin embryo assay protocols were used.
Fixation and staining of embryos for immunofluorescence microscopy were performed according to a modified method of Balczon and Schatten ((1983) Cell Motility 3:213-226, which is herein incorporated by reference). […]. After extraction for 45 minutes, the embryos were fixed for 6 minutes with −10° C. methanol. After methanol fixation, the cells were rinsed for 5 minutes in PBS and then 25 μl of anti-α-tubulin monoclonal antibody (1:100) in PBS comprising 2% bovine serum albumin was added.
The embryos were incubated at 37° C. for about 60 to about 75 minutes and rinsed for 20 minutes in PBS after which 25 μl of a secondary staining solution comprising fluoroscein isothiocynate (FITC) conjugated to an anti-mouse IgG (1:100 in PBS) and DAPI (10 μg/ml) was added. The embryos were then incubated for 60 minutes at 37° C. and then rinsed for 20 minutes in PBS. Coverslips were mounted onto the slides with a solution of Vectashield® (Vector Laboratories, Inc., Burlingame, Calif.) and sealed with nail polish. […]

S. franciscanus embryos = assay: Inhibition of first cleavage of sea urchin embryos (dose-response); format: cell-based
Experimental: as §1, with “Fresh sperm were collected from the aboral surface of a male urchin. About 1 drop of concentrated sperm was collected into a test tube and 1 ml of seawater was added. A 1 ml aliquot of the sperm solution was added per 100 ml of suspended eggs and immediately mixed.” left out
After 1 minute post-fertilization, about 1 ml of embryos were placed on a microscope slide and checked for percent fertilization under a 10× magnification with a light microscope. […] The amount of division was calculated in each test sample by counting the number of divided versus undivided embryos in a small sample of about 40 μL using the light microscope.
as §2

sea urchin embryos [3] = assay: Cell cycle analysis: dicoumarol added at 10-minute intervals after fertilization; settings: 50 μM dicoumarol added at 10-minute intervals; FIG. 5
Experimental: The ability of dicoumarol to block cells in mitosis, like a mitotic spindle poison, was examined. The first mitosis typically occurs between about 70 to about 90 minutes after fertilization and cytokinesis is usually complete at about 120 minutes, giving rise to two blastomeres.
Specifically, aliquots were designated T-10, T-20, . . . T-120.

tubulin = tubulin (Bos taurus, UniProt P81947+Q6B856); assay: Turbidity (light scattering) polymerization assay with electron microscopy; format: biochemical, bovine
Experimental: To determine the rate and extent of the ability of a test compound to promote or inhibit microtubule polymerization (change in turbidity) a coumarin compound is added to a cuvet comprising about 1 mg/ml microtubule protein. The cuvet is incubated at 37° C. for 45 minutes in a spectrophotometer equipped with a heating unit and the absorbance is measured at about 340 nm. The change in absorbance is measured at intervals of 45 seconds over the 45-minute period and compared to the absorbance change induced by 1 mM GTP.
Specifically, 1.2 mg/ml of microtubule protein was mixed with different concentrations of dicoumarol in 100 mM PIPES, 1 mM MgCl2, and 1 mM EGTA (100 mM PEM buffer), and 1 mM guanosine 5′-triphosphate. Microtubule polymerization was monitored at 37° C. by light scattering at 350 nm using a Gilford Response Spectrophotometer.
10 μl aliquots were taken from spectrophotometrically followed reaction mixtures obtained during the course of the turbidity/light scattering assays at 10, 20, and 45 minutes and applied to 200-mesh carbon coated, Formavar-treated, copper grids (Ted Pella, Inc., Redding, Calif.). The sample was followed by several drops of 0.5% uranyl acetate and excess was drained off with filter paper. The grids were then examined with a Zeiss model 10CA electron microscope.

tubulin, sequence (Q6B856 whole entry): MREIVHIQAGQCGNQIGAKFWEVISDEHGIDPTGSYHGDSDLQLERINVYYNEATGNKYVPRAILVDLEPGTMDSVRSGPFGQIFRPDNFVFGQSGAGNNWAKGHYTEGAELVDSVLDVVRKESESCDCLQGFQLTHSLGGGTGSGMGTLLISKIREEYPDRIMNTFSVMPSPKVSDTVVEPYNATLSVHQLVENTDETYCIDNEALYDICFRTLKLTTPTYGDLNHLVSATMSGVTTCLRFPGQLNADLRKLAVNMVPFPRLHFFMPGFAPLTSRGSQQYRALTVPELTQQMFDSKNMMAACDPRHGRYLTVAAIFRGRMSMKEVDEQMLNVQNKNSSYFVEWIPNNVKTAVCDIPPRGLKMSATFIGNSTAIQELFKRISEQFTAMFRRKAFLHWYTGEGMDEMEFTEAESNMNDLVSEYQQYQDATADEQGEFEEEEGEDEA
tubulin, sequence (P81947 whole entry): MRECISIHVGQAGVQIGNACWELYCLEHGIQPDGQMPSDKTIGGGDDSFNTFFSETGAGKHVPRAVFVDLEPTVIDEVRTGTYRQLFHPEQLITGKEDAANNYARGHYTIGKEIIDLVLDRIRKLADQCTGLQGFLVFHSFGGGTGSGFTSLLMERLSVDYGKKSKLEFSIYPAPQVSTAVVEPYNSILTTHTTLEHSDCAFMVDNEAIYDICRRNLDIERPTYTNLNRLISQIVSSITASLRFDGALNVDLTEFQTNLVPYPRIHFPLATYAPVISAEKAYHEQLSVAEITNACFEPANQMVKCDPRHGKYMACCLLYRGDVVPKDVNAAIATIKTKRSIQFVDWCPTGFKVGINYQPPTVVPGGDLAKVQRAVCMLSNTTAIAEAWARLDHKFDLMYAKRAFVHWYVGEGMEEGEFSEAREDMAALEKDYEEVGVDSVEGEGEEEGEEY

## O=c1ccc2ccc(O)cc2o1 [7-hydroxycoumarin]
S. purpuratus embryos
  inhibition of the first cleavage of S. purpuratus embryos: inhibited the first cleavage
S. purpuratus embryos; S. purpuratus embryos, first cleavage
  IC50: ~40 µM

## O=c1ccc2ccccc2o1 [coumarin]
S. purpuratus embryos
  inhibition of the first cleavage of S. purpuratus embryos: inhibited the first cleavage

## O=c1oc2ccccc2c(O)c1Cc1c(O)c2ccccc2oc1=O [dicoumarol]
[1]
  dose-response curve of cleavage inhibition: identical to those obtained using S. purpuratus
Sea urchin embryos [2]
  chromosome organization: disorganized chromosomes that had not congressed to the metaphase plate
  microtubules of mitotic spindles: bipolar, but appeared to be longer and located outside an intact nuclear envelope
S. franciscanus embryos
  dose-response curve of cleavage inhibition: identical to those obtained using S. purpuratus
Sea urchin embryos [3]
  inhibition of first cleavage versus time of addition after fertilization: rapidly declined when dicoumarol was added 90 minutes after fertilization; also recorded: blocked if added after metaphase (90 minutes)
S. purpuratus embryos
  inhibition of the first cleavage of S. purpuratus embryos: inhibited the first cleavage
  IC50: ~4 µM
S. purpuratus embryos; S. purpuratus embryos
  concentration at which cell division was completely blocked: ≥ 20 µM
S. purpuratus embryos; dicoumarol treated embryos
  lysis or morphological changes of treated embryos: no lysis or morphological changes
tubulin; 100 μM dicoumarol, polymerization prolonged to 45 minutes
  microtubule formation by electron microscopy: microtubules were produced
tubulin; axonemal seeded microtubules, 20 μM dicoumarol
  microtubule formation by electron microscopy: revealed actual microtubule structures
tubulin; polymerization for 10 and 20 minutes, no axonemes
  microtubule formation by electron microscopy: No microtubules were formed
tubulin; tubulin 12 μM, dicoumarol 0 μM-80 μM, FIG. 9
  rate and extent of polymerization of tubulin (turbidity): increased the rate and extent of tubulin polymerization; also recorded: concentration-dependent increase

## CC(=O)CC(c1ccccc1)c1c(O)c2ccccc2oc1=O (centres unmarked) [warfarin]
S. purpuratus embryos
  inhibition of the first cleavage of S. purpuratus embryos: inhibited the first cleavage
